Test results taken from PMC7717570, “Deciphering the enzymatic target of a new family of antischistosomal agents bearing a quinazoline scaffold using complementary computational tools” (Journal of Enzyme Inhibition and Medicinal Chemistry, 2020).
Read-outs that look alike come from different tables or passages of the source.

Tests used:
[1] = test system: Schistosoma mansoni mature worms; design: method as in PMID 30669086; conditions: cited from earlier work; for Worm killing (% of total) / Worm killing (female worms) / Worm killing (male worms): day 5, previously reported; for EC50: previously reported
[2] = Microsomal stability, mouse liver microsomes (S9), Phase-II (UGT enzymes); format: in vitro ADME; conditions: 5 µM
Procedure: (§1) Mouse or human liver microsomes (S9), reduced nicotinamide adenine dinucleotide phosphate (NADPH) generating system solutions and uridine glucuronosyltransferase (UGT) reaction mix (BD Biosciences) were kept at −80 °C. The test compounds and reference compound diclofenac were formulated in DMSO at […]. The assay was carried out based on the BD Biosciences Guidelines for Use (TF000017 Rev1.0) with minor adaptations. The metabolic stability of the compounds was studied through the CYP450 superfamily (Phase-I metabolism) by fortification with NADPH and through UGT enzymes (Phase-II metabolism) by fortification with uridine diphosphate glucuronic acid (UDPGA). For CYP450 and other NADPH dependent enzymes, the compounds were incubated at 5 µM together with 0.5 mg/mL S9 in potassium phosphate buffer in a reaction started by the addition of 1 mM NADP. At defined time points, 20 µL was withdrawn from the reaction mixture and 80 µL cold acetonitrile (ACN) was added to inactivate the enzymes and precipitate the protein. The mixture was vortexed for 30 s and centrifuged at 4 °C for 5 min to collect the supernatant. For UGT enzymes, the compounds were incubated at 5 µM together with 0.5 mg/mL S9 in a reaction started by the addition of 2 mM UDPGA cofactor. The loss of parent compound was determined using liquid chromatography (UPLC) (Waters Aquity^TM) coupled with tandem quadrupole mass spectrometry (MS^2) (Waters Xevo^TM), equipped with an electrospray ionisation (ESI) interface and operated in multiple reaction monitoring (MRM) mode.

[3] = test system: S. mansoni-infected mouse model; test: In vivo antischistosomal efficacy in the S. mansoni-infected mouse model; design: species or system Schistosoma mansoni; conditions: mice; for Reduction in total worm burden (percentage change from infected control): sacrificed 10 days post-treatment
Procedure: PZQ was obtained from Egyptian International Pharmaceutical Industries Company (EIPICO) and aminobenzotriazole (ABT) from Fluorochem Ltd.
Male Swiss albino mice (CD-1) obtained from SBSC and weighing 18–20 g were housed under environmentally controlled room temperature of 20–22 °C, 12 h light/dark cycle and 50–60% humidity with food and water ad libitum throughout the acclimatisation and experimental periods. All the animal experiments were conducted in accordance with the Guide for Care and Use of Laboratory Animals and were approved by the Institutional Review Board of Theodor Bilharz Research Institute (TBRI).
Mice were infected with S. mansoni cercariae [provided by Schistosome Biology Supply Center (SBSC)] using body immersion[16] by exposure to 80 ± 10 cercariae/mouse. Infected mice were divided into six groups: groups 1 and 2 were treated the vehicle and the CYP450 inhibitor ABT respectively; groups 3 and 4 were dosed for 5 days with NPD-1246 at 20 and 10 mg/kg, respectively, while group 5 was treated with PZQ at 10 mg/kg/day for 5 days. Group 6 was treated with NPD-1246 combined with PZQ, each at 10 mg/kg/day for 5 days starting from week 7 post-infection. To minimise first-pass elimination, ABT was administered at 100 mg/kg/day for 5 days 2 h prior to each compound administration. NPD-1246 and PZQ were freshly suspended in 2% Cremophore-EL (Sigma-Aldrich). All drug administrations were performed orally.
Ten days post-treatment, all mice were sacrificed and perfused, and the number of worms recovered (worm burden) was quantified and sexed. The number of eggs per gram of liver or intestinal tissue was counted. The percentage of egg developmental stages (oogram pattern) was studied[19] in which eggs at different stages of maturity (from I to IV) were identified and counted. Mature eggs and dead eggs (granular, dark, and semi-transparent) were also counted in three fragments of intestine and the mean number of each stage was calculated.
The percentage reduction of worm or egg burden in each treated group was calculated. […] Results are expressed as mean ± SEM. A two-tailed, unpaired Student’s t-test was used to detect the significance of difference between the means of different groups. Results are considered significant if p value is <0.05.

[4] = test system: Schistosoma mansoni worm couples; design: method as in PMID 30669086; conditions: previously reported, cited from earlier work
[5] = Microsomal stability, mouse liver microsomes (S9), Phase-I (CYP450-NADPH); format: in vitro ADME; conditions: 5 µM
Procedure: as §1

[6] = oral 20 mg/kg/day for 5 days with ABT

## O=c1c2ccccc2n(Cc2ccc(C(F)(F)F)cc2)c(=O)n1Cc1ccccc1 [NPD-1246, 3-Benzyl-1-(4-(trifluoromethyl)benzyl)quinazoline-2,4(1H,3H)-dione]
[1]; 5 µM
  Worm killing (% of total): 0%
[1]; 10 µM
  Worm killing (% of total): 0%
[1]; 25 µM
  Worm killing (% of total): 0%
[1]; 50 µM
  Worm killing (% of total): 53%
[1]; 100 µM
  Worm killing (% of total): 100%
[1]; female worms, 5 µM
  Worm killing (female worms): 0
[1]; female worms, 10 µM
  Worm killing (female worms): 0
[1]; female worms, 25 µM
  Worm killing (female worms): 0
[1]; female worms, 50 µM
  Worm killing (female worms): 57
[1]; female worms, 100 µM
  Worm killing (female worms): 100
[1]; female worms, read-out: EC50 (worm killing, female worms)
  EC50: 50 µM
[1]; male and female worms, read-out: EC50 (worm killing)
  EC50: 50 µM
[1]; male worms, 5 µM
  Worm killing (male worms): 0
[1]; male worms, 10 µM
  Worm killing (male worms): 0
[1]; male worms, 25 µM
  Worm killing (male worms): 0
[1]; male worms, 50 µM
  Worm killing (male worms): 50
[1]; male worms, 100 µM
  Worm killing (male worms): 100
[1]; male worms, read-out: EC50 (worm killing, male worms)
  EC50: 50 µM
[2]; 0 h
  % Parent compound remaining upon incubation: 100%
[2]; 0.25 h
  % Parent compound remaining upon incubation: 111%
[2]; 0.5 h
  % Parent compound remaining upon incubation: 111%
[2]; 1 h
  % Parent compound remaining upon incubation: 106%
[3]; [6]
  Percentage of dead eggs compared to the infected untreated group: significant increase
  Reduction in intestinal tissue egg load (percentage change from infected control): 18%
[3]; oral 20 mg/kg/day for 5 days with ABT 100 mg/kg/day
  Reduction in total worm burden (percentage change from infected control): 24%
[4]; 5 µM
  Uncoupling: No
[4]; 10 µM
  Uncoupling: No
[4]; 25 µM, listed as NPD-1246 (1)
  Uncoupling: Uncoupling and Yes
[4]; 50 µM
  Reduction in number of eggs (%): 100%
[4]; 50 µM, listed as NPD-1246 (1)
  Uncoupling: Uncoupling and Yes
[4]; 100 µM
  Reduction in number of eggs (%): 100%
[4]; 100 µM, listed as NPD-1246 (1)
  Uncoupling: Uncoupling and Yes
[5]; 0 h
  % Parent compound remaining upon incubation: 100%
[5]; 0.25 h
  % Parent compound remaining upon incubation: 66%
[5]; 0.5 h
  % Parent compound remaining upon incubation: 27%
[5]; 1 h
  % Parent compound remaining upon incubation: 8%

## O=C(C1CCCCC1)N1CC(=O)N2CCc3ccccc3C2C1 (stereo not drawn) [PZQ, praziquantel, reference compound]
[3]; oral 10 mg/kg/day (each) for 5 days with ABT
  Reduction in intestinal tissue egg load (percentage change from infected control): 70%
[3]; oral 10 mg/kg/day (each) for 5 days with ABT 100 mg/kg/day
  Reduction in total worm burden (percentage change from infected control): 63%
[3]; oral 10 mg/kg/day (each) for 5 days with ABT, + = increase
  Reduction in hepatic tissue egg load (percentage change from infected control): 38%
